Assay results published in patent US20260234131A1, “THERAPEUTIC ALKALOID COMPOUNDS” (Sensorium Therapeutics, Inc., priority 2023, published 2026).
pIC50: −log10 of the molar value.

Legend:
[1] = target: T1, SERT (Homo sapiens, UniProt P31645); assay: SERT inhibition assay (Neurotransmitter Transportation Fluorescence assay, stable 5HTT cells); type: cell-based; settings: for IC50 ratio to (−) mesembrine: SERT assay IC50 relative to (−) mesembrine; for pIC50: stable 5HTT cells, 30 minutes at 37° C., fluorescence uptake kit, read-out: SERT Assay Potency Range
T1 construct: expressed in transfected cells
Protocol: SERT inhibition can be measured using a Neruotransmitter Transportation Fluorescence assay. Briefly, stable 5HTT cells were prepared in a 384 microwell plate. Compounds were prepared by in assay buffer (20 mM HEPES, 0.1% BSA). The compounds were added to the plated cells and incubated for 30 minutes at 37° C. 25 μL of dye solution (Molecular Devices Neurotransmitter Transporter Uptake Assay Kit) is added per well and incubated for 30 minutes at 37° C. The plates are then read on a plate reader.

[2] = pharmacokinetics described for (−) mesembrine; species not given; cited from earlier work

T1 sequence (P31645 whole entry, species assumed): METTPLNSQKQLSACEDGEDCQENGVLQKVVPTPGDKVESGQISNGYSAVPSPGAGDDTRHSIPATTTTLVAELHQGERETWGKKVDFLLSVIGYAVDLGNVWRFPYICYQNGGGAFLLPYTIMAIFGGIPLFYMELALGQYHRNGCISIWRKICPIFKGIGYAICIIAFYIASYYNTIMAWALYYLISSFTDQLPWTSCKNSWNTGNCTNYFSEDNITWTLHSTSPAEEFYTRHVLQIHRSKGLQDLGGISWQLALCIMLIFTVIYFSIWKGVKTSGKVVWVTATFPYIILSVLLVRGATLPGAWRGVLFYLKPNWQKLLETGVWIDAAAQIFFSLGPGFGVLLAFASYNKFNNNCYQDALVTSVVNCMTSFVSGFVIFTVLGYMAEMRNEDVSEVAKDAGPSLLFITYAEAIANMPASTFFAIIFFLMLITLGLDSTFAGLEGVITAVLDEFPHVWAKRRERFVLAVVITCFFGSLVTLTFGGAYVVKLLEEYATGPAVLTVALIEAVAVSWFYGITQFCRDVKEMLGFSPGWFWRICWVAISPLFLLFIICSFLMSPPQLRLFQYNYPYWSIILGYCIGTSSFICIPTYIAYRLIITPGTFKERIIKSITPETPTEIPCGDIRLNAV

SMILES: CN1CC[C@]2(c3ccc4c(c3)OC(F)(F)O4)CCC(=O)C[C@H]12 (single isomer, unassigned) [Compound 232]
- IC50 ratio to (−) mesembrine [1]: <5
- pIC50 [1]: > 7.30

SMILES: CN1CC[C@@]2(c3ccc4c(c3)OC(F)(F)O4)CCC(=O)C[C@@H]12 (single isomer, unassigned) [Compound 233]
- IC50 ratio to (−) mesembrine [1]: ≥100
- pIC50 [1]: 5.82 to 6.30

SMILES: COc1ccc([C@@]23CCC(=O)C[C@@H]2N(C)CC3)cc1OC [Mesembrine]
- half-life in plasma [2]: less than 2 hours
